Where two headings read alike, the source gives them in different places. Marks after values point to notes of the source that are not given here.
Columns and labels:
[1] = tested on: Lewis lung cancer; type: in vivo, mouse; conditions: 15 mg/kg
Source text: C57BL/6 mice, 6-8 weeks old, weighing 19-21 g, male, provided by Liaoning Changsheng Biotechnology Co., Ltd., certificate number: SYSK (Ji) 2018-0001. Two batches of experiments all used male C57BL/6 mice, which were adaptively raised in a laboratory for 3-5 days before the experiment.
Mouse Lewis lung cancer cells were provided by Jilin Cancer Research Institute and passaged and preserved in the laboratory. Lewis lung cancer cells were resuscitated, cells were expanded to 2-3×10^8 cells/mL, cells were collected, and cell density was adjusted to 2×10^7 cells/mL.
(§1) a first batch of experiments: C57BL/6 mice were randomly divided into 6 groups according to body weight. • Saline control group administered with physiological saline 20 ml/kg • Solvent control group administered with 35-degree white wine 20 ml/kg • Cyclophosphamide administered with 0.075% 15 mg/20 group cyclophosphamide ml/kg • Low dose group of anti-administered with 20% anti-lung cancer 4 ml/20 lung cancer vinum ml/kg • Mid dose group of anti-administered with 40% anti-lung cancer 8 ml/20 lung cancer vinum ml/kg • High dose group of anti-Administered with 80% anti-lung 16 ml/20 m lung cancer vinum cancer vinum l/kg • a second batch of experiments: randomly divided into 6 groups based on body weight: • Saline control group administered with physiological saline 20 ml/kg • Solvent control group administered with 35-degree white wine 20 ml/kg • Cyclophosphamide administered with 0.075% 15 mg/20 group cyclophosphamide ml/kg • Low dose group of anti-administered with 10% anti-lung cancer 2 ml/20 lung cancer vinum ml/kg • Mid dose group of anti-administered with 20% anti-lung cancer 4 ml/20 lung cancer vinum ml/kg • High dose group of anti-administered with 40% anti-lung cancer 8 ml/20 lung cancer vinum ml/kg
(§2) C57BL/6 mice were adaptively fed for 3-5 days, and an in vivo transplant tumor model was prepared using anti-tumor drug experimental methods. Each mouse was subcutaneously injected with 0.2 ml of cell suspension with a concentration of 2×10^7 cells/mL. On the second day, they were randomly divided into 6 groups based on body weight, with 20 mice in each group. Each group started administration the next day after tumor inoculation, and the drugs in each group were freshly prepared and administered at a dose of […], twice a day for 14, 16, or 21 consecutive days.
(§3) The first batch of experiments: measure a tumor volume and plot a tumor growth curve once on the 8th, 10th, 12th, and 14th day of administration; after 14 days of administration, 10 mice in each group were weighed and euthanized. Tumors, spleens, lungs, and thymus were removed, weighed, tumor inhibition rate and organ coefficient were calculated; after 21 days of administration, 6 mice in each group were perfused with physiological saline and their lungs were removed, fixed with Bouin solution and the number of metastatic lung nodules was examined under a microscope.
(§4) The second batch of experiments: measure the tumor volume and plot the tumor growth curve once on the 8th, 10th, 12th, 14th, and 16th day of administration; after 16 days of administration, 12 mice in each group were weighed and euthanized. Tumors, spleens, lungs, and thymus were removed, weighed, and the tumor inhibition rate and organ coefficient were calculated; after 21 days of administration, 6 mice in each group were perfused with physiological saline and their lungs were removed, fixed with Bouis solution and the number of metastatic lung nodules was examined under the microscope.

[2] = 15 mg/kg
Method: as §1, §2, §3, §4

[3] = tested on: Lewis lung cancer lung metastasis; type: in vivo, mouse; conditions: 15 mg/kg; for Number of pulmonary nodules: after 21 days of administration
Method: as §1
C57BL/6 mice were adaptively fed for 3-5 days, and an in vivo transplant tumor model was prepared using anti-tumor drug experimental methods. Each mouse was subcutaneously injected with 0.2 ml of cell suspension with a concentration of 2×10^7 cells/mL. […]
The first batch of experiments: measure a tumor volume and plot a tumor growth curve once on the 8th, 10th, 12th, and 14th day of administration; after 14 days of administration, 10 mice in each group were weighed and euthanized. Tumors, spleens, lungs, and thymus were removed, weighed, tumor inhibition rate and organ coefficient were calculated; after 21 days of administration, 6 mice in each group were perfused with physiological saline and their lungs were removed, fixed with Bouin solution and the number of metastatic lung nodules was examined under a microscope. […]

[4] = first batch, after 14 days of administration
[5] = second batch, after 16 days of administration

Structure (SMILES): O=P1(N(CCCl)CCCl)NCCCO1 (centres unmarked) [Cyclophosphamide]
- Volume of tumor ([1]; first batch, 8 days): 61.08##** mm^3
- Volume of tumor ([1]; first batch, 10 days): 244.09##** mm^3
- Volume of tumor ([1]; first batch, 12 days): 817.83##** mm^3
- Volume of tumor ([1]; first batch, 14 days): 953.67##** mm^3
- Tumor inhibition rate [1, 4]: 63.52%
- Weight of tumor [1, 4]: 0.59 ± 0.26 g
- Volume of tumor ([1]; second batch, 8 days): 111.30##** mm^3
- Volume of tumor ([1]; second batch, 10 days): 165.52##** mm^3
- Volume of tumor ([1]; second batch, 12 days): 278.25##** mm^3
- Volume of tumor ([1]; second batch, 14 days): 371.57##** mm^3
- Volume of tumor ([1]; second batch, 16 days): 461.54##** mm^3
- Tumor inhibition rate [1, 5]: 67.43%
- Weight of tumor [1, 5]: 0.56 ± 0.22 g
- Tumor inhibition rate ([1]; summary of both batches, by gavage): 65.48%
- Toxicity (body weight, thymic coefficient, spleen coefficient of mice) [2]: significant toxic effects
- Weight before administration ([2]; first batch, Table 3): 20.30 ± 1.33 g
- Lung coefficient [2, 4]: 7.26 ± 0.85
- Spleen coefficient [2, 4]: 3.40 ± 1.02
- Thymic coefficient [2, 4]: 1.11 ± 0.35
- Weight after administration [2, 4]: 20.30 ± 1.33 g
- Weight after administration ([2]; first batch, after 21 days of administration): 21.81 ± 1.37 g
- Weight after administration [2, 5]: 21.58 ± 0.79 g
- Lung coefficient [2, 5]: 6.66 ± 0.72
- Spleen coefficient [2, 5]: 3.62 ± 0.86
- Thymic coefficient [2, 5]: 0.47 ± 0.16
- Weight after administration ([2]; second batch, after 21 days of administration): 22.02 ± 1.71 g
- Effect on lung metastasis in Lewis lung cancer mice ([3]; continuous administration for 21 days): can inhibit lung metastasis
- Number of pulmonary nodules ([3]; first batch): 6.17 ± 1.94
- Number of pulmonary nodules ([3]; second batch): 6.67 ± 1.21

— patent US20240424048A1, “CHINESE MEDICINE FORMULA FOR TREATING TUMORS AND/OR PULMONARY NODULES AND PREPARATION METHOD THEREOF” (priority 2023, published 2024)
